Experimental data as given in patent US8324245B2, “Quinoline derivative and quinazoline derivative inhibiting self-phosphorylation of hepatocytus proliferator receptor, and medicinal composition containing the same” (Kyowa Hakko Kirin Co., Ltd., priority 2001, dated 2012).

Molecular target: T1, met (HGF receptor) in human gastric cancer cells MKN45 (Homo sapiens, UniProt P08581)
T1 construct: endogenous in cells; host or cells: MKN45 human gastric cancer cells
Assay: Inhibitory activity against met-autophosphorylation using ELISA method (2), MKN45 cells, HGF-independent
Assay type: cell-based
Procedure: Cells were cultured with RPMI medium containing 0.1% fetal calf serum in 96-well flat-bottom plate in an amount of 3×10^4 per well, and were incubated at 37° C. overnight. The medium was then replaced by a fresh RPMI medium containing 0.1% fetal calf serum. A solution of the test compound in dimethyl sulfoxide was added to each well, and the incuvation was continued at 37° C. for additional one hr. The medium was removed, the cells were washed with phosphate buffered saline (pH 7.4), and 50 μl of a lysis buffer (20 mM HEPES (pH 7.4), 150 mM NaCl, 0.2% Triton X-100, 10% glycerol, 5 mM sodium orthovanadylate, 5 mM disodium ethylenediaminetetraacetate, and 2 mM Na4P2O7) was then added thereto. The mixture was shaken at 4° C. for 2 hr to prepare a cell extract.
Separately, phosphate buffered saline (50 μl, pH 7.4) containing 5 μg/ml of anti-phospho-tyrosine antibody (PY20; purchased from Transduction Laboratories) was added to a microplate for ELISA (Maxisorp; purchased from NUNC), followed by gentle agitation at 4° C. overnight to coat the surface of the wells with the antibody. After washing of the plate, 300 μl of a blocking solution was added, followed by gentle agitation at room temperature for 2 hr to perform blocking. After washing, the whole quantity of the cell extract was transferred to the wells, and the plate was then allowed to stand at 4° C. overnight. After washing, an anti-HGF receptor antibody (h-Met (C-12), purchased from Santa Cruz Biotechnology) was allowed to react at room temperature for one hr, and, after washing, a peroxidase-labeled anti-rabbit Ig antibody (purchased from Amersham) was allowed to react at room temperature for one hr. After washing, a chromophoric substrate for peroxidase (purchased from Sumitomo Bakelite Co., Ltd.) was added thereto to initiate a reaction. After a suitable level of color development, a reaction termination solution was added to stop the reaction, and the absorbance at 450 nm was measured with a microplate reader.

T1 sequence (P08581 25-1390): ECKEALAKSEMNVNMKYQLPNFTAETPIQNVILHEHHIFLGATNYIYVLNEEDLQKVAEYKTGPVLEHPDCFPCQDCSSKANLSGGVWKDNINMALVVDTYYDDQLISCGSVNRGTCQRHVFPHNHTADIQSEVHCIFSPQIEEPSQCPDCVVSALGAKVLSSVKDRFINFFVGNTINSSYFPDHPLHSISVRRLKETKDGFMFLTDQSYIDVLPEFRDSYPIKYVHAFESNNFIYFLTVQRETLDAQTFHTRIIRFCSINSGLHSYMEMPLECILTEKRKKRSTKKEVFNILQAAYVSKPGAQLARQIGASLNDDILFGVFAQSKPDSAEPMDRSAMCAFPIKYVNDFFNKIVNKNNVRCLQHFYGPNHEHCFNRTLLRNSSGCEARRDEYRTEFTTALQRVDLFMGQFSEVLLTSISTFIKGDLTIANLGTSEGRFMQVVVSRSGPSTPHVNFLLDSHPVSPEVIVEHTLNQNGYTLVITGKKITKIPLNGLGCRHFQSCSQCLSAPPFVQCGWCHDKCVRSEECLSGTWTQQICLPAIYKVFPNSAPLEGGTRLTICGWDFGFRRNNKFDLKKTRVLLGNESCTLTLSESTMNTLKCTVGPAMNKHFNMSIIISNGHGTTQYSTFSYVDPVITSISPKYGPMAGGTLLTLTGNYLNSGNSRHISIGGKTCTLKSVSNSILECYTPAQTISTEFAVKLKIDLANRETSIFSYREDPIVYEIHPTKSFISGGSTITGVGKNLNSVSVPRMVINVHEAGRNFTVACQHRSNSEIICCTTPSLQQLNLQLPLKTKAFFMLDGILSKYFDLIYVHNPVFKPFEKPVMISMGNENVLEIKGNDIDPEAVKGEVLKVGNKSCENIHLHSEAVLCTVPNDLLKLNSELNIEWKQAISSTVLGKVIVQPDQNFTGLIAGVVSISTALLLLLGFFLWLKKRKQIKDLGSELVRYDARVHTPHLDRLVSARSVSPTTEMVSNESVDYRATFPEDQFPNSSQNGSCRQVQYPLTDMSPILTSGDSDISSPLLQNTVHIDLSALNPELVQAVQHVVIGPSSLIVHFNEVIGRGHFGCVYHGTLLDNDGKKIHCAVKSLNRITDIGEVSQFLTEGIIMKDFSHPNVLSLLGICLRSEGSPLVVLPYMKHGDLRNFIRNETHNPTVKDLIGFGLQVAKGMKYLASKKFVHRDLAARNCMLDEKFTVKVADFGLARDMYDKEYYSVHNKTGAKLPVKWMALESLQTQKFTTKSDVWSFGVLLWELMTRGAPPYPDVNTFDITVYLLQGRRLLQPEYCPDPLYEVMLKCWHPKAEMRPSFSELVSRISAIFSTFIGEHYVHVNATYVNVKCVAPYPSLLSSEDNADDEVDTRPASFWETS

| SMILES | IC50 |
| --- | --- |
| COc1cc2c(Oc3ccc(NC(=O)NC(=O)Cc4ccc(F)cc4)c(F)c3)ccnc2cc1OCc1ccccc1 [Example 40, N-(4-{[7-(Benzyloxy)-6-methoxy-4-quinolyl]oxy}-2-fluorophenyl)-N′-[2-(4-fluorophenyl)acetyl]urea] | 242 nM |
| COc1cc2c(Oc3ccc(NC(=O)NC(=O)Cc4ccc(F)cc4)cc3F)ccnc2cc1OCCCCN1CCOCC1 [Example 41, 1-{3-fluoro-4-[6-methoxy-7-(4-morpholin-4-yl-butoxy)quinolin-4-yloxy]phenyl}-3-[2-(4-fluorophenyl)-acetyl]urea] | 281 nM |
| COc1cc2c(Oc3ccc(NC(=O)NC(=O)Cc4ccc(F)cc4)cc3F)ccnc2cc1OCCCCN1CCCCC1 [Example 42, 1-{3-fluoro-4-[6-methoxy-7-(4-piperidine-1-yl-butoxy)quinolin-4-yloxy]phenyl}-3-[2-(4-fluorophenyl)-acetyl]urea] | 190 nM |
| COc1cc2c(Oc3ccc(NC(=O)NC(=O)Cc4ccc(F)cc4)cc3F)ccnc2cc1OCCCCN1CCN(C)CC1 [Example 43, 1-(3-fluoro-4-{6-methoxy-7-[4-(4-methyl-piperazin-1-yl)-butoxy]quinolin-4-yloxy}phenyl)-3-[2-(4-fluorophenyl)acetyl]urea] | 167 nM |
| COc1cc2c(Oc3ccc(NC(=O)NC(=O)Cc4ccc(F)cc4)c(F)c3)ccnc2cc1OCCCCN1CCOCC1 [Example 44, 1-{2-fluoro-4-[6-methoxy-7-(4-morpholin-4-yl-butoxy)quinolin-4-yloxy]phenyl}-3-[2-(4-fluorophenyl)-acetyl]urea] | 291 nM |
| COc1cc2c(Oc3ccc(NC(=O)NC(=O)Cc4ccc(F)cc4)c(F)c3)ccnc2cc1OCCCCN1CCCCC1 [Example 45, 1-{2-fluoro-4-[6-methoxy-7-(4-piperidine-1-yl-butoxy)quinolin-4-yloxy]phenyl}-3-[2-(4-fluorophenyl)-acetyl]urea] | 207 nM |
| COc1cc2c(Oc3ccc(NC(=O)NC(=O)Cc4ccc(F)cc4)cc3F)ccnc2cc1OCCCN1CCOCC1 [Example 46, 1-{3-fluoro-4-[6-methoxy-7-(3-morpholin-4-yl-propoxy)quinolin-4-yloxy]phenyl}-3-[2-(4-fluorophenyl)-acetyl]urea] | 229 nM |
| COc1cc2c(Oc3ccc(NC(=O)NC(=O)Cc4ccc(F)cc4)cc3F)ccnc2cc1OCCCN1CCCCC1 [Example 47, 1-{3-fluoro-4-[6-methoxy-7-(3-piperidin-1-yl-propoxy)quinolin-4-yloxy]phenyl}-3-[2-(4-fluorophenyl)-acetyl]urea] | 215 nM |
| COc1cc2c(Oc3ccc(NC(=O)NC(=O)Cc4ccc(F)cc4)cc3F)ccnc2cc1OCCN1CCCCC1 [Example 48, 1-{3-fluoro-4-[6-methoxy-7-(2-piperidin-1-yl-ethoxy)quinolin-4-yloxy]phenyl}-3-[2-(4-fluorophenyl)-acetyl]urea] | 224 nM |
| COc1cc2c(Oc3ccc(NC(=O)NC(=O)Cc4ccc(F)cc4)cc3F)ccnc2cc1OCCN1CCN(C)CC1 [Example 49, 1-(3-fluoro-4-{6-methoxy-7-[2-(4-methyl-piperazin-1-yl)-ethoxy]quinolin-4-yloxy}phenyl)-3-[2-(4-fluorophenyl)acetyl]urea] | 51.4 nM |
| COc1cc2c(Oc3ccc(NC(=O)NC(=O)Cc4ccc(F)cc4)c(F)c3)ccnc2cc1OCCCN1CCCCC1 [Example 50, 1-{2-fluoro-4-[6-methoxy-7-(3-piperidin-1-yl-propoxy)quinolin-4-yloxy]phenyl}-3-[2-(4-fluorophenyl)-acetyl]urea] | 235 nM |
| COc1cc2c(Oc3ccc(NC(=O)NC(=O)Cc4ccc(F)cc4)c(F)c3)ccnc2cc1OCCCN1CCN(C)CC1 [Example 51, 1-(2-fluoro-4-{6-methoxy-7-[3-(4-methyl-piperazin-1-yl)-propoxy]quinolin-4-yloxy}phenyl)-3-[2-(4-fluorophenyl)acetyl]urea] | 203 nM |
| COc1cc2c(Oc3ccc(NC(=O)NC(=O)Cc4ccccc4)cc3F)ccnc2cc1OCCCN1CCCCC1 [Example 52, 1-{3-fluoro-4-[6-methoxy-7-(3-piperidin-1-yl-propoxy)quinolin-4-yloxy]phenyl}-3-phenylacetylurea] | 171 nM |
| COc1cc2c(Oc3ccc(NC(=O)NC(=O)Cc4ccccc4)cc3F)ccnc2cc1OCCCN1CCN(C)CC1 [Example 53, 1-(3-fluoro-4-{6-methoxy-7-[3-(4-methyl-piperazin-1-yl)-propoxy]quinolin-4-yloxy}phenyl)-3-phenylacetylurea] | 37.4 nM |

Next, values leading:

| IC50 | SMILES |
| --- | --- |
| 26.1 nM | COc1cc2c(Oc3ccc(NC(=O)NC(=O)Cc4ccccc4)cc3F)ccnc2cc1OCCN1CCOCC1 [Example 54, 1-{3-fluoro-4-[6-methoxy-7-(2-morpholin-4-yl-ethoxy)quinolin-4-yloxy]phenyl}-3-phenylacetylurea] |
| 245 nM | COc1cc2c(Oc3ccc(NC(=O)NC(=O)Cc4ccc(F)cc4)cc3F)ccnc2cc1OCCN1CCOCC1 [Example 55, 1-{3-fluoro-4-[6-methoxy-7-(2-morpholin-4-yl-ethoxy)quinolin-4-yloxy]phenyl}-3-[2-(4-fluorophenyl)-acetyl]urea] |
| 140 nM | COc1cc2nccc(Oc3ccc(NC(=S)NC(=O)c4cccc5ccccc45)cc3)c2cc1OC [Example 56, 1-[4-(6,7-dimethoxyquinolin-4-yloxy)phenyl]-3-(naphthalene-1-carbonyl)thiourea] |
| 132 nM | COc1cc2nccc(Oc3ccc(NC(=S)NC(=O)c4cccc5ccccc45)c(F)c3)c2cc1OC [Example 57, 1-[4-(6,7-dimethoxyquinolin-4-yloxy)-2-fluoro-phenyl]-3-(naphthalene-1-carbonyl)thiourea] |
| 27 nM | COc1cc2nccc(Oc3ccc(NC(=S)NC(=O)Cc4ccccc4)c(F)c3)c2cc1OC [Example 58, 1-[4-(6,7-dimethoxyquinolin-4-yloxy)-2-fluorophenyl]-3-phenylacetylthiourea] |
| 193 nM | COc1cc2nccc(Oc3ccc(NC(=S)NC(=O)Cc4ccccc4Cl)cc3)c2cc1OC [Example 59, 1-[2-(2-chlorophenyl)acetyl]-3-[4-(6,7-dimethoxyquinolin-4-yloxy)phenyl]thiourea] |
| 113 nM | COc1cc2nccc(Oc3ccc(NC(=S)NC(=O)CC4CCCCC4)cc3)c2cc1OC [Example 61, 1-(2-cyclohexylacetyl)-3-[4-(6,7-dimethoxy-quinolin-4-yloxy)phenyl]thiourea] |
| 92 nM | CCOCCC(=O)NC(=S)Nc1ccc(Oc2ccnc3cc(OC)c(OC)cc23)cc1 [Example 62, 1-[4-(6,7-dimethoxyquinolin-4-yloxy)phenyl]-3-(3-ethoxypropionyl)thiourea] |
| 24.4 nM | COc1cc2nccc(Oc3ccc(NC(=S)NC(=O)Cc4ccccc4)cc3Cl)c2cc1OC [Example 63, 1-[3-chloro-4-(6,7-dimethoxyquinolin-4-yloxy)-phenyl]-3-phenylacetylthiourea] |
| 140 nM | COc1cc2nccc(Oc3ccc(NC(=S)NC(=O)CCc4ccccc4C)cc3F)c2cc1OC [Example 64, 1-[4-(6,7-dimethoxyquinolin-4-yloxy)-3-fluoro-phenyl]-3-(3-o-tolylpropionyl)thiourea] |
| 66.3 nM | COc1cc2nccc(Oc3ccc(NC(=S)NC(=O)Cc4ccccc4)c(Cl)c3)c2cc1OC [Example 65, 1-[2-chloro-4-(6,7-dimethoxyquinolin-4-yloxy)-phenyl]-3-phenylacetylthiourea] |
| 79.2 nM | COc1cc2nccc(Oc3ccc(NC(=S)NC(=O)Cc4cccs4)cc3)c2cc1OC [Example 66, 1-[4-(6,7-dimethoxyquinolin-4-yloxy)phenyl]-3-(2-thiophen-2-ylacetyl)thiourea] |
| 19.7 nM | COc1cc2nccc(Oc3ccc(NC(=S)NC(=O)Cc4ccccc4)cc3C)c2cc1OC [Example 67, 1-[4-(6,7-dimethoxyquinolin-4-yloxy)-3-methyl-phenyl]-3-phenylacetylthiourea] |
| 194 nM | COc1cc2nccc(Oc3ccc(NC(=S)NC(=O)Cc4ccccc4)cc3OC)c2cc1OC [Example 68, 1-[4-(6,7-dimethoxyquinolin-4-yloxy)-3-methoxyphenyl]-3-phenylacetylthiourea] |
| 4.4 nM | COc1cc(Oc2ccnc3cc(OC)c(OC)cc23)ccc1NC(=S)NC(=O)Cc1ccccc1 [Example 69, 1-[4-(6,7-dimethoxyquinolin-4-yloxy)-2-methoxyphenyl]-3-phenylacetylthiourea] |
| 15.3 nM | COc1cc2nccc(Oc3c(Cl)cc(NC(=S)NC(=O)Cc4ccccc4)cc3Cl)c2cc1OC [Example 70, 1-[3,5-dichloro-4-(6,7-dimethoxyquinolin-4-yloxy)phenyl]-3-phenylacetylthiourea] |
| 29.9 nM | COc1cc2nccc(Oc3ccc(NC(=S)NC(=O)Cc4ccc(F)cc4)cc3)c2cc1OC [Example 71, 1-[4-(6,7-dimethoxyquinolin-4-yloxy)phenyl]-3-[2-(4-fluorophenyl)acetyl]thiourea] |
| 27.9 nM | COc1cc2nccc(Oc3ccc(NC(=S)NC(=O)Cc4ccc(F)cc4)c(F)c3)c2cc1OC [Example 72, 1-[4-(6,7-dimethoxyquinolin-4-yloxy)-2-fluoro-phenyl]-3-[2-(4-fluorophenyl)acetyl]thiourea] |
